“And” between values parts separate entries of the source, which are not always exact repeats. Identical values can stand only once. Like-named read-outs stand apart in the source and are kept apart here.
Key:
α7 integrin [1] = assay: western analysis of α7 integrin in C2C12 myoblasts/myotubes; type: cell-based, mouse; settings: C2C12 myotubes
Method: (§1) FIGS. 13A-13D illustrate western blot studies in which protein extracts from C2C12 (A, B) and DMD (C, D) myoblasts were first treated with PBS or 100 nM LAM-111 and then subjected to western analysis of the α7B integrin and the Cox-1 loading standard. *=p<0.05.
Bands were quantified using Image J software and then graphed as α7 Integrin protein levels relative to GAPDH protein levels. * denotes a significant difference in relative protein levels with **p<0.01.
The ability of laminin to regulate α7 integrin expression, α7βgal^+/− myoblasts were exposed to 0-200 nM laminin-111 for 24 hours. The activity of the α7 integrin promoter was measured by β-galactosidase cleavage of the non-fluorescent compound fluorescein di-β-D-galactopyranoside (FDG) to fluorescein. […] The ability of laminin-111 to increase α7 integrin expression was confirmed by western analysis using mouse and human DMD muscle cells (FIGS. 2A-2D).
(§2) It is contemplated that the identified parent scaffolds (Tables 8 and 9) increase α7 integrin expression through a similar mechanism.

α7 integrin promoter = assay: muscle cell-based assay: α7βgal+/− myoblasts/myotubes, LacZ reporter, β-galactosidase cleavage of FDG; design: species or system mouse; Results in α7+/− β-galactosidase assay: scale not given here; settings: for Results in α7+/− β-galactosidase assay: Myoblasts; for Results in a α7+/− β-galactosidase assay, Myotubes, 0.5 uM: compound at 0.5 uM; for Results in a α7+/− β-galactosidase assay, Myotubes, 1 uM: compound at 1 uM; for Results in a α7+/− β-galactosidase assay, Myotubes, 5 uM: compound at 5 uM; for Results in a α7+/− β-galactosidase assay, Myotubes, 10 uM: compound at 10 uM; for Results in a α7+/− β-galactosidase assay, Myotubes, 20 uM: compound at 20 uM; for Results in a α7+/− β-galactosidase assay, Myotubes, 40 uM: compound at 40 uM; for Fit Curve Class: key not given
In short: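 Primary α7βgal+/− mouse myoblasts (LacZ knocked into α7 integrin exon 1, promoter retained), differentiated; promoter activity read as β-galactosidase conversion of non-fluorescent FDG to fluorescein. Hits followed by dose-response, western analysis and myostatin counterscreen.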

Mdx/utr−/− mice = assay: treatment of mdx/utr−/− mice; settings: mouse, in vivo
α7 integrin [2] = assay: western analysis of α7 integrin in DMD myoblasts/myotubes; type: cell-based, human; settings: 2,2-dipyridyl 31.25 μM, deferoxamine 5 and 10 μM, 132 hrs
Method: as §1
Protein was extracted from the cells and subjected to western blotting using antibodies against α7 integrin. α-tubulin was used as a loading control.
as §2

CCCC(CCC)C(=O)O [Valproic acid, valproic acid]
α7 integrin protein (α7 integrin [1]): increased | EC50 (α7 integrin promoter; Mus musculus, enhancement of α7 integrin expression in muscle cells, read-out: EC50): 500 µM | Optimal Concentration (α7 integrin promoter; enhancement of α7 integrin expression in muscle cells): 2 mM | Akt signaling pathway in muscle (Mdx/utr−/− mice): activation | fibrosis (Mdx/utr−/− mice): reduced fibrosis | mobility (Mdx/utr−/− mice): improved mobility | muscle disease (Mdx/utr−/− mice; listed as Valproic Acid): reduced muscle disease | muscle disease (Mdx/utr−/− mice; listed as valproic acid): reduced overall muscle disease

CC(C)CCC[C@@H](C)[C@H]1CC[C@H]2[C@@H]3CC(=O)[C@H]4C[C@@H](O)CC[C@]4(C)[C@H]3CC[C@]12C [5α-cholestan-3β-ol-6-one, reference compound]
α7 integrin protein (α7 integrin [2]): increased | EC100 (α7 integrin promoter): 20 µM | Optimal Concentration (α7 integrin promoter): 20 μm | EC50 (α7 integrin promoter; read-out: EC50): 6 µM

c1ccc(-c2ccccn2)nc1 [2,2-Dipyridyl, 2,2-dipyridyl, reference compound]
α7 integrin protein (α7 integrin [2]): increased | Optimal Concentration (α7 integrin promoter): 125 μm | EC50 (α7 integrin promoter; read-out: EC50): 62.5 µM

O=C1Nc2ccccc2/C1=C/c1ccccc1Cl [drawing 529]
Results in α7+/− β-galactosidase assay (α7 integrin promoter; 0.5 uM): 0.2214 | Results in α7+/− β-galactosidase assay (α7 integrin promoter; 1 uM): 0.2193 | Results in α7+/− β-galactosidase assay (α7 integrin promoter; 5 uM): −0.03271 | Results in α7+/− β-galactosidase assay (α7 integrin promoter; 10 uM): −0.1355 | Results in α7+/− β-galactosidase assay (α7 integrin promoter; 20 uM): −0.2535 | Results in α7+/− β-galactosidase assay (α7 integrin promoter; 40 uM): −0.6555

COc1cc(/C=C/CN2CCN(Cc3ccc(C)o3)C(CCO)C2)ccc1O (centres unmarked) [drawing 585]
Results in α7+/− β-galactosidase assay (α7 integrin promoter; 5 uM): 0.1427 and 0.1728

CC1(C)Cc2c(cnn2-c2cccc(F)c2)C(NC(=O)CCc2cnccn2)C1 (centres unmarked) [drawing 326]
Results in a α7+/− β-galactosidase assay, Myotubes, 0.5 uM (α7 integrin promoter): 0.2586 | Results in a α7+/− β-galactosidase assay, Myotubes, 1 uM (α7 integrin promoter): 0.1834 | Results in a α7+/− β-galactosidase assay, Myotubes, 5 uM (α7 integrin promoter): −0.03061 | Results in a α7+/− β-galactosidase assay, Myotubes, 10 uM (α7 integrin promoter): 0.09511 | Results in a α7+/− β-galactosidase assay, Myotubes, 20 uM (α7 integrin promoter): −0.2257 | Results in a α7+/− β-galactosidase assay, Myotubes, 40 uM (α7 integrin promoter): −0.2443

Cc1ccccc1C(=O)Nc1nnc(SC(C)C)s1 [Compound 196]
EC50 (α7 integrin promoter; Mus musculus, given as log AC50 (negative values), read-out: Fit LogAC50 (converted)): 10 µM | Score (α7 integrin promoter; Table 12 compound data): 42 | Fit Curve Class (α7 integrin promoter; curve class number): 2.2 | Fit HillSlope (α7 integrin promoter; curve fit): 2.8473 | Fit Zero Activity [%] (α7 integrin promoter; curve fit, activity at zero concentration): −0.5091%

C=CCOc1ccc(C(=O)/C=C2\C(=O)Nc3ccccc32)cc1 [drawing 561]
Results in α7+/− β-galactosidase assay (α7 integrin promoter; 0.5 uM): −0.1092 | Results in α7+/− β-galactosidase assay (α7 integrin promoter; 1 uM): −0.1536 | Results in α7+/− β-galactosidase assay (α7 integrin promoter; 5 uM): −0.257 | Results in α7+/− β-galactosidase assay (α7 integrin promoter; 10 uM): −0.2991 | Results in α7+/− β-galactosidase assay (α7 integrin promoter; 20 uM): −0.2121 | Results in α7+/− β-galactosidase assay (α7 integrin promoter; 40 uM): −0.7606

CCOC(=O)C1CCCN(C(=O)CNS(=O)(=O)c2ccc(Br)s2)C1 (centres unmarked) [drawing 500]
Results in a α7+/− β-galactosidase assay, Myotubes, 0.5 uM (α7 integrin promoter): −0.02306 | Results in a α7+/− β-galactosidase assay, Myotubes, 1 uM (α7 integrin promoter): 0.05901 | Results in a α7+/− β-galactosidase assay, Myotubes, 5 uM (α7 integrin promoter): −0.3059 | Results in a α7+/− β-galactosidase assay, Myotubes, 10 uM (α7 integrin promoter): −0.1617 | Results in a α7+/− β-galactosidase assay, Myotubes, 20 uM (α7 integrin promoter): −0.03881 | Results in a α7+/− β-galactosidase assay, Myotubes, 40 uM (α7 integrin promoter): −0.02855

COc1ccccc1CC(=O)Nc1cc(S(=O)(=O)N2CCOCC2)ccc1N1CCOCC1 [drawing 699]
Results in α7+/− β-galactosidase assay (α7 integrin promoter; 0.5 uM): 0.122 | Results in α7+/− β-galactosidase assay (α7 integrin promoter; 1 uM): −0.02918 | Results in α7+/− β-galactosidase assay (α7 integrin promoter; 5 uM): 0.0982 | Results in α7+/− β-galactosidase assay (α7 integrin promoter; 10 uM): 0.2162 | Results in α7+/− β-galactosidase assay (α7 integrin promoter; 20 uM): −0.2175 | Results in α7+/− β-galactosidase assay (α7 integrin promoter; 40 uM): −0.3265

Cc1cc(C)cc(OCC(=O)N/N=C/c2ccccn2)c1 [drawing 547]
Results in α7+/− β-galactosidase assay (α7 integrin promoter; 0.5 uM): 0.02525 | Results in α7+/− β-galactosidase assay (α7 integrin promoter; 1 uM): 0.04969 | Results in α7+/− β-galactosidase assay (α7 integrin promoter; 5 uM): 0.0722 | Results in α7+/− β-galactosidase assay (α7 integrin promoter; 10 uM): −0.00591 | Results in α7+/− β-galactosidase assay (α7 integrin promoter; 20 uM): 0.8477 | Results in α7+/− β-galactosidase assay (α7 integrin promoter; 40 uM): −0.1757

CCOc1ccc2ccccc2c1C1NC(=O)N(C)C(C)=C1C(=O)OCCOC (centres unmarked) [Compound 76]
AC50 (α7 integrin promoter; Mus musculus, Table 12, log of AC50, given with negative sign, unit of AC50 not given, read-out: Fit Log AC50 (converted)): 6.31 µM | Fit HillSlope (α7 integrin promoter; Table 12, curve fit): 1.3443 | Fit Zero Activity [%] (α7 integrin promoter; Table 12, fitted activity at zero concentration): −8.518% | Fit Curve Class (α7 integrin promoter; Table 12): 2.1 | Score (α7 integrin promoter; Table 12 Compound data, concentration-response curve fit): 44

CC1CCN(C(CNS(=O)(=O)c2ccccc2)c2ccccc2)CC1 (centres unmarked) [drawing 404]
Results in a α7+/− β-galactosidase assay, Myotubes, 0.5 uM (α7 integrin promoter): 0.1307 | Results in a α7+/− β-galactosidase assay, Myotubes, 1 uM (α7 integrin promoter): 0.1946 | Results in a α7+/− β-galactosidase assay, Myotubes, 5 uM (α7 integrin promoter): −0.1201 | Results in a α7+/− β-galactosidase assay, Myotubes, 10 uM (α7 integrin promoter): −0.1176 | Results in a α7+/− β-galactosidase assay, Myotubes, 20 uM (α7 integrin promoter): −0.1296 | Results in a α7+/− β-galactosidase assay, Myotubes, 40 uM (α7 integrin promoter): −0.1429

CN1C(=O)/C(=C(/C#N)c2nc3ccccc3[nH]2)c2ccccc21 [drawing 592]
Results in α7+/− β-galactosidase assay (α7 integrin promoter; 0.5 uM): −0.1972 | Results in α7+/− β-galactosidase assay (α7 integrin promoter; 1 uM): −0.1961 | Results in α7+/− β-galactosidase assay (α7 integrin promoter; 5 uM): −0.2667 | Results in α7+/− β-galactosidase assay (α7 integrin promoter; 10 uM): 0.04652 | Results in α7+/− β-galactosidase assay (α7 integrin promoter; 20 uM): −0.456 | Results in α7+/− β-galactosidase assay (α7 integrin promoter; 40 uM): −0.5499

C/C(=N\NC(=O)c1cc(C)oc1C)c1ccc2ccccc2c1 [drawing 652]
Results in α7+/− β-galactosidase assay (α7 integrin promoter; 0.5 uM): −0.1564 | Results in α7+/− β-galactosidase assay (α7 integrin promoter; 1 uM): −0.09115 | Results in α7+/− β-galactosidase assay (α7 integrin promoter; 5 uM): 0.2722 | Results in α7+/− β-galactosidase assay (α7 integrin promoter; 10 uM): −0.1575 | Results in α7+/− β-galactosidase assay (α7 integrin promoter; 20 uM): −0.3649 | Results in α7+/− β-galactosidase assay (α7 integrin promoter; 40 uM): −0.6275
